Earlier results on 1 molecule are cited in patent US20260053727A1, “PERSONAL CARE COMPOSITIONS WITH ENZYME-MODIFIED OILS (EMOS)” (GLYCOSBIO INC., priority 2023, published 2026).

The conditions of this data set: commonly known.

`O=C([O-])c1ccccc1.[Na+]` [sodium benzoate]: the antimicrobial activity entry was “weakly antimicrobial”.
